This is an account of results in ChEMBL document CHEMBL1141380 (J Med Chem, 2007).

Series [1] addresses T1, Angiopoietin-1 receptor (Homo sapiens, UniProt Q02763). As to the kind of experiment: Inhibition of Tie2 by HTRF assay. A general note: Time-resolved FRET reads energy transfer from a long-lived donor to a nearby acceptor.
A short description of series [2]: Solubility in 0.01N HCl. The format is physicochemical.
The target of series [3] is Vascular endothelial growth factor receptor 2 (Homo sapiens, UniProt P35968).
Description: Inhibition of KDR by HTRF assay
Series [4] has as its target High affinity nerve growth factor receptor (Homo sapiens, UniProt P04629). Put plainly: Inhibition of TrkA.
The target in series [5] is T1, Angiopoietin-1 receptor. Put plainly: Inhibition of angiopoietin-1-stimulated Tie2 phosphorylation in EA.hy926 cells. The format is functional, cell-based.
Series [6] can be described thus: Clearance in iv dosed rat. The format is ADME, organism-based. The note with it: in vivo.
The target in series [7] is Platelet-derived growth factor receptor beta (Homo sapiens, UniProt P09619). Put plainly: Inhibition of PDGFR.
Series [8] addresses Macrophage colony-stimulating factor 1 receptor (Homo sapiens, UniProt P07333). Put plainly: Inhibition of c-fms.
For series [9], the target named is Proto-oncogene tyrosine-protein kinase receptor Ret (Homo sapiens, UniProt P07949). As to the kind of experiment: Inhibition of RET.
The target of series [10] is Insulin-like growth factor 1 receptor (Homo sapiens, UniProt P08069). Put plainly: Inhibition of IGFR1.
Series [11] deals with Ephrin type-B receptor 4 (Homo sapiens, UniProt P54760). As to the kind of experiment: Inhibition of EPHB4.
Series [12] concerns the target Tyrosine-protein kinase SYK (Homo sapiens, UniProt P43405). As to the kind of experiment: Inhibition of SYK.
Series [13] concerns the target Tyrosine-protein kinase ZAP-70 (Homo sapiens, UniProt P43403). Put plainly: Inhibition of ZAP70.
In series [14] the target is Tyrosine-protein kinase JAK3 (Homo sapiens, UniProt P52333). As to the kind of experiment: Inhibition of Jak3.
For series [15], the target named is Tyrosine-protein kinase CSK (Homo sapiens, UniProt P41240). As to the kind of experiment: Inhibition of CSK.
In series [16] the target is Proto-oncogene tyrosine-protein kinase Src (Homo sapiens, UniProt P12931). Put plainly: inhibition of Src.
Series [17] has as its target Tyrosine-protein kinase Lck (Homo sapiens, UniProt P06239). As to the kind of experiment: Inhibition of Lck.
Series [18] has as its target Tyrosine-protein kinase Lyn (Homo sapiens, UniProt P07948). Put plainly: Inhibition of Lyn.
Series [19] concerns the target Tyrosine-protein kinase Fgr (Homo sapiens, UniProt P09769). As to the kind of experiment: Inhibition of Fgr.
Series [20] addresses Tyrosine-protein kinase ABL1 (Homo sapiens, UniProt P00519). As to the kind of experiment: Inhibition of Abl.
Series [21] concerns the target Tyrosine-protein kinase ITK/TSK (Homo sapiens, UniProt Q08881). As to the kind of experiment: Inhibition of Itk.
Series [22] addresses Mitogen-activated protein kinase 14 (Homo sapiens, UniProt Q16539). As to the kind of experiment: Inhibition of p38alpha.
In series [23] the target is Mitogen-activated protein kinase 10 (Homo sapiens, UniProt P53779). As to the kind of experiment: inhibition of JNK3.
Series [24] addresses Cyclin-dependent kinase 5 (Homo sapiens, UniProt Q00535). Put plainly: Inhibition of CDK5.
The target of series [25] is Aurora kinase A (Homo sapiens, UniProt O14965). As to the kind of experiment: Inhibition of AurA.
Series [26] has as its target RAC-alpha serine/threonine-protein kinase (Homo sapiens, UniProt P31749). Put plainly: Inhibition of PKBalpha.
The nature of series [27]: Half life in Sprague-Dawley rat at 1 mg/kg, iv. The format is ADME, organism-based. Set-up: dose 1 mg/kg, route intravenous. Particulars: in vivo.
Series [28] is described as follows: Clearance in Sprague-Dawley rat at 1 mg/kg, iv. The format is ADME, organism-based. Set-up: dose 1 mg/kg, route intravenous. The note with it: in vivo.
Series [29] in a line: Volume of distribution in Sprague-Dawley rat at 1 mg/kg, iv. Set-up: dose 1 mg/kg, route intravenous. The format is ADME, organism-based. The note with it: in vivo, read-out: Vss.
Series [30] can be described thus: Oral bioavailability in Sprague-Dawley rat at 10 mg/kg, po. The format is ADME, organism-based. The note with it: in vivo.
Series [31] is described as follows: Cmax in Sprague-Dawley rat at 10 mg/kg, po. Particulars: in vivo. The format is ADME, organism-based. Set-up: dose 10 mg/kg, route oral.
A short description of series [32]: AUC (0-infinity) in Sprague-Dawley rat at 10 mg/kg, po. The format is ADME, organism-based. Set-up: time infinity, dose 10 mg/kg, route oral. The note with it: plasma.
The nature of series [33]: Plasma protein binding in rat. The format is ADME, cell-free. The note with it: read-out: PPB (converted).
Series [34] can be described thus: Plasma protein binding in mouse. The format is ADME, cell-free. The note with it: read-out: PPB (converted).
Series [35] is described as follows: Plasma concentration in CD1 NU/NU mouse at 100 mg/kg after 3 hrs. The format is ADME, organism-based. Set-up: dose 100 mg/kg.
In series [36] the target is Angiopoietin-1 receptor (Mus musculus) (UniProt Q02858). Put plainly: Inhibition of angiopoietin-1-induced Tie2 phosphorylation in CD1 NU/NU mouse at 100 mg/kg after 3 hrs. The format is functional, organism-based. Set-up: dose 100 mg/kg.
For series [37] the target is unchanged. Put plainly: Inhibition of angiopoietin-1-induced Tie2 phosphorylation in CD1 NU/NU mouse at 100 mg/kg after 8 hrs. The format is functional, organism-based. Set-up: dose 100 mg/kg.
Series [38] can be described thus: Plasma concentration in CD1 NU/NU mouse at 100 mg/kg after 8 hrs. Set-up: dose 100 mg/kg. The format is ADME, organism-based.
Series [39] can be described thus: Plasma concentration in CD1 NU/NU mouse at 100 mg/kg after 12 hrs. Set-up: dose 100 mg/kg. The format is ADME, organism-based.
Series [40] can be described thus: Tmax in Sprague-Dawley rat at 10 mg/kg, po. Particulars: in vivo. The format is ADME, organism-based. Set-up: dose 10 mg/kg, route oral.
Series [41] can be described thus: Dissociation constant, pKa of the compound. The format is physicochemical.
A short description of series [42]: Solubility in simulated intestinal fluid at pH 6.8. The format is physicochemical.
The nature of series [43]: Solubility in phosphate buffer at pH 7.0. The format is physicochemical.
The nature of series [44]: Mean residence time in rat. The format is ADME, organism-based. Particulars: in vivo.
For series [45], the target named is Mast/stem cell growth factor receptor Kit (Homo sapiens, UniProt P10721). Put plainly: Inhibition of cKit.

SMILES strings stand for the structures. ≈ marks a conversion by molar mass, not a printed value.

T1 sequence (Q02763 whole entry): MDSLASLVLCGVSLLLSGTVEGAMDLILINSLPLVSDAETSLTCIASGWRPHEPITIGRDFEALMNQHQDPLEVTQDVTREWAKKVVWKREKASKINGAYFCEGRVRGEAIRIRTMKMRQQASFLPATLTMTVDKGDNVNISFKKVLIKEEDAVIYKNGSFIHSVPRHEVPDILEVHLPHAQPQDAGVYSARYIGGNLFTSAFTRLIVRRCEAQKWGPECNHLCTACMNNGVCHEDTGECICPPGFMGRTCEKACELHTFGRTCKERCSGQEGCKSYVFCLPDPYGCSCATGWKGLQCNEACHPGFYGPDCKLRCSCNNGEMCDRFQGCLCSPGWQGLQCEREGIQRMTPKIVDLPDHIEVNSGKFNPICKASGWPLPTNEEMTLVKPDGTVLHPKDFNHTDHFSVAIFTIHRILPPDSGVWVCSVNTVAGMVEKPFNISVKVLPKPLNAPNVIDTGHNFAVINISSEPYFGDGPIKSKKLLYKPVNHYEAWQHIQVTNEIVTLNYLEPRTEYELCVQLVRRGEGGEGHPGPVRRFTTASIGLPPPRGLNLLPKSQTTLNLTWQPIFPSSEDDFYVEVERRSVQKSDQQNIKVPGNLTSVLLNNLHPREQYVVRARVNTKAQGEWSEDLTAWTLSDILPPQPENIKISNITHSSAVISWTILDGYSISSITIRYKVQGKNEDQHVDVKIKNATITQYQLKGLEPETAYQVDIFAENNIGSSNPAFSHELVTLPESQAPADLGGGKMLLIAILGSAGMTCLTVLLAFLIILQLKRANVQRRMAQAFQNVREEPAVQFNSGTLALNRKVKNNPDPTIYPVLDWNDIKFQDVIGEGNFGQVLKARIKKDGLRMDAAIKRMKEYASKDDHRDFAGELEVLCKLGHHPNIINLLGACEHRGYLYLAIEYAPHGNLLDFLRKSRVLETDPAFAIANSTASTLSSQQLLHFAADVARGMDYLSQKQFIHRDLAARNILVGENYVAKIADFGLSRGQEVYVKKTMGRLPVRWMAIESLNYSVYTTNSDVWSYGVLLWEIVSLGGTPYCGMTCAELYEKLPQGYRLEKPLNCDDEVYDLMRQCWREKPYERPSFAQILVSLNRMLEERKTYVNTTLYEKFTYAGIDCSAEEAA
Sequence of Vascular endothelial growth factor receptor 2 (P35968 whole entry): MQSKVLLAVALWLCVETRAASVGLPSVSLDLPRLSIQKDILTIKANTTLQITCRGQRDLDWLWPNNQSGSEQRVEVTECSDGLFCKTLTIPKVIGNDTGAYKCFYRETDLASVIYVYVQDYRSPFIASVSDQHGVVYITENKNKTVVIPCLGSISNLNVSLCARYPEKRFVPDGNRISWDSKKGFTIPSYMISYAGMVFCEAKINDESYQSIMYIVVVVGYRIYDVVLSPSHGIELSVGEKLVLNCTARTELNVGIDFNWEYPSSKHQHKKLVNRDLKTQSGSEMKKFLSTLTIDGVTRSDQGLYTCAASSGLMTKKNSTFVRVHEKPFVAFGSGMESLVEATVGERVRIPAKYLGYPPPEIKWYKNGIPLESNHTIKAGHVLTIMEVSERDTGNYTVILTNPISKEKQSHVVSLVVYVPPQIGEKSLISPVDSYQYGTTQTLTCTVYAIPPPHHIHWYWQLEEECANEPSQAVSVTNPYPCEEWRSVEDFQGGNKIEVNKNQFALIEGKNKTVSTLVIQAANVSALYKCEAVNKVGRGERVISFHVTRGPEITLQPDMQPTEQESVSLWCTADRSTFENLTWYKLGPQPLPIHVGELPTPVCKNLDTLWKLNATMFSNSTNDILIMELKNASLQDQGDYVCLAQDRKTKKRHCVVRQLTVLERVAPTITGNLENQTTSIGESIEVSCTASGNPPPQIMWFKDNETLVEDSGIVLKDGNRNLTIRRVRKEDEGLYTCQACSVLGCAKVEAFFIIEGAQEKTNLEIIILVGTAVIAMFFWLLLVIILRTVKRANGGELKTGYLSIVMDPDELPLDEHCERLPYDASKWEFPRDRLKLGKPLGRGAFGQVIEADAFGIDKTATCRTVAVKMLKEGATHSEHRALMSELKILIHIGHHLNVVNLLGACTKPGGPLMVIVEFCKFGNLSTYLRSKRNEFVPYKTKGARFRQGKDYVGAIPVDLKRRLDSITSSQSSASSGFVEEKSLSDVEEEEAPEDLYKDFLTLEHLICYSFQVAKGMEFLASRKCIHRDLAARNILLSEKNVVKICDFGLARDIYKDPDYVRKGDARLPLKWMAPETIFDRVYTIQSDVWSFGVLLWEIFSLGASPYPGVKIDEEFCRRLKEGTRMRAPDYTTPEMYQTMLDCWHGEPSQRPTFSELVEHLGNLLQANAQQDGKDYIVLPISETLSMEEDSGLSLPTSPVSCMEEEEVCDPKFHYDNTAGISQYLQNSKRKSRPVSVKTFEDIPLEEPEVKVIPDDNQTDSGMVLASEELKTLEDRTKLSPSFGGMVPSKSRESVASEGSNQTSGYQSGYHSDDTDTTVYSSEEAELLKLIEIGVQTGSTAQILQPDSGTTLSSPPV
Sequence of Ephrin type-B receptor 4 (P54760 whole entry): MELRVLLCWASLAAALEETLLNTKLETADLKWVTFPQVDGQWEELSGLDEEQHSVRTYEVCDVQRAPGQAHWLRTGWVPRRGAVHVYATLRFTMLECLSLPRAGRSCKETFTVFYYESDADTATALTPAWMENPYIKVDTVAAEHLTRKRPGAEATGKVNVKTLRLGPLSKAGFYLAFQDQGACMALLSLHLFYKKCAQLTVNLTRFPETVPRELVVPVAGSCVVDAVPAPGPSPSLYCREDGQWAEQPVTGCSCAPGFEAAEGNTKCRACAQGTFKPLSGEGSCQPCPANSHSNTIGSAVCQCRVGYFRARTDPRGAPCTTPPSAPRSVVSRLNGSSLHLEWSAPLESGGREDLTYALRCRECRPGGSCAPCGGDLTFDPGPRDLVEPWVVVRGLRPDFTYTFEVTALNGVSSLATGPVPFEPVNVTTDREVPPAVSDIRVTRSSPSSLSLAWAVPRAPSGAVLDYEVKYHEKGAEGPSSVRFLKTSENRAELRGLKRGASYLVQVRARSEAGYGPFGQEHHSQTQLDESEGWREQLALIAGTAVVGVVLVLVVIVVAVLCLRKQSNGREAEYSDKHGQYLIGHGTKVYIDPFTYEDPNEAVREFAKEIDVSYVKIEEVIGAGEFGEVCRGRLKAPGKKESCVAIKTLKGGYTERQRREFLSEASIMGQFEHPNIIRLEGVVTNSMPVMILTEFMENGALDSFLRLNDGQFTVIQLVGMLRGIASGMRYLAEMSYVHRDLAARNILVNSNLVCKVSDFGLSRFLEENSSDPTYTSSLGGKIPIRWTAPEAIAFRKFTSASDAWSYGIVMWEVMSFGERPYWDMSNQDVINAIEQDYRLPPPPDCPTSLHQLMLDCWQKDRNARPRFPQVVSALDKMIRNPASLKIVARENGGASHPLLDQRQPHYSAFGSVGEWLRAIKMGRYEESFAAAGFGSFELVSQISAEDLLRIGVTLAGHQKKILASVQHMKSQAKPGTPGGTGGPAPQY
Sequence of Proto-oncogene tyrosine-protein kinase Src (P12931 2-536 limits assumed): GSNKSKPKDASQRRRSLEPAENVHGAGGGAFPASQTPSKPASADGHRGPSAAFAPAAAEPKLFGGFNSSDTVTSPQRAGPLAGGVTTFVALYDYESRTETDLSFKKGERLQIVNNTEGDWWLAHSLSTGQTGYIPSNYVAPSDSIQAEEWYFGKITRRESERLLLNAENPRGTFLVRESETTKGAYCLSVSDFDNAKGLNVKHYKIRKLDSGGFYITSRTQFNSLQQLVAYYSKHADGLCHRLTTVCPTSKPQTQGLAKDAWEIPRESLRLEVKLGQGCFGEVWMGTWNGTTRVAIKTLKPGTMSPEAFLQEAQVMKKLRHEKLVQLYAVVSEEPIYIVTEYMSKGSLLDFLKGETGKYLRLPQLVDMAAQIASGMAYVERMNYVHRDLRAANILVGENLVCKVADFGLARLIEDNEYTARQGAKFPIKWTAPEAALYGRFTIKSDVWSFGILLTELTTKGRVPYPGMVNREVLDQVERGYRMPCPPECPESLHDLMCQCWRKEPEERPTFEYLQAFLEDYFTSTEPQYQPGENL
Sequence of Tyrosine-protein kinase Lyn (P07948 whole entry): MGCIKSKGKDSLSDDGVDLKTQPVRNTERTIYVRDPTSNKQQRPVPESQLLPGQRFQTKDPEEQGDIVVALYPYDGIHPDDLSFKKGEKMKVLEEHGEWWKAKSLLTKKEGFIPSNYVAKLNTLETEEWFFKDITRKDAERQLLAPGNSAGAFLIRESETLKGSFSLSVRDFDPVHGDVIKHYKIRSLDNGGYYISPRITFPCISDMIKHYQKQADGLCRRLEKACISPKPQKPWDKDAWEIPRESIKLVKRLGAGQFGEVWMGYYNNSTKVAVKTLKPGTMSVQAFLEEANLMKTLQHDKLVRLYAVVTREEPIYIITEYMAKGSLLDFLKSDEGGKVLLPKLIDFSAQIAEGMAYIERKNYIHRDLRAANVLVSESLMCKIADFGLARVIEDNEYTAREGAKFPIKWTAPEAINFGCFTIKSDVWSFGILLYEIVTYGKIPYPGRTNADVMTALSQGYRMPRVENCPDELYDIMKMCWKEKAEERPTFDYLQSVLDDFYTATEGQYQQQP
Sequence of Mitogen-activated protein kinase 14 (Q16539 whole entry): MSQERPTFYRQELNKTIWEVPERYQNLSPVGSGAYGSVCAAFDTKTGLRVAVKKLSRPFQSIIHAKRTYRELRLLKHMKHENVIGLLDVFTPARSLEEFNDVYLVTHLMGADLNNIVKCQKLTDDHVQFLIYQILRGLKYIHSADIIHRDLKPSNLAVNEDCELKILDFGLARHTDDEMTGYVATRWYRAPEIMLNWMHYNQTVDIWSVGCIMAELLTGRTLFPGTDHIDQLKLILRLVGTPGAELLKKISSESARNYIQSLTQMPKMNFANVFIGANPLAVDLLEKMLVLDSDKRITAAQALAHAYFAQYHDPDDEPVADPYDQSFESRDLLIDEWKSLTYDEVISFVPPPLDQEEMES

Take `Cc1ccc(C(=O)Nc2ccc(C(F)(F)F)cc2)cc1Nc1ncccc1-c1ccncn1`: the results for the IC50 in series [1] and in series [3] were 0.504 µM and 0.177 µM, respectively. Besides, the solubility in series [2] was found to be 1 µg/mL (≈ 2.23 µM).

With `CNc1ncnc(-c2cccnc2Oc2ccc(F)c(C(=O)Nc3cc(C(F)(F)F)ccc3N(C)CCCN(C)C)c2)n1`, the IC50 is 8.3 µM in series [4]; 0.03 µM in [1]; 0.062 µM in [5]; 1.94 µM in [7]; 25 µM in series [8]; 8.3 µM in series [9]. Besides, the IC50 was 0.927 µM in [10]; 8.3 µM in [11]; 25 µM in [12]; 25 µM in series [13]; 25 µM in series [14]; 25 µM in [15]. The half-inhibitory concentration (IC50) came to 5.75 µM in series [16]; 1.1 µM in series [17]; 4.9 µM in series [18]; 8.3 µM in [19]; 1.28 µM in series [20]; 25 µM in [21]. The IC50 in series [22] was determined as 3.7 µM; in series [23], 40 µM; in [24] it was 100 µM; in series [25] it was 25 µM; in series [26] it was 100 µM; in series [3], 7.8 µM. The clearance in [6] and in [28] was 21.7 mL/min/kg throughout. In series [27], the half-life is 1.6 h. Also, in series [29], the Vd turned out to be 2.56 L/kg. The bioavailability in series [30] was 31%. Besides, the concentration in [31] peaked (Cmax) at 520 ng/mL. Moreover, in series [32], the AUC(0-inf) was determined as 2640 ng·h/mL. The fraction unbound in series [33] is 0.07; in [34], 0.02. In addition, in [35], the concentration at 3 h amounted to 3.97 µM. The results for the inhibition in series [36] and in [37] were 94% and 25%, respectively. This compound also yielded a concentration at 8 h in [38] of 3.03 µM. Besides, the concentration at 12 h in [39] came out at 1.59 µM. Besides, the time to peak (Tmax) in [40] worked out at 2 h. The same compound showed a pKa in series [41] of 9.5. The results for the solubility in [2], in [42] and in series [43] were 1320 µg/mL (≈ 2210 µM), 340 µg/mL (≈ 568 µM) and 44 µg/mL (≈ 73.5 µM), respectively.

On to `CNc1nccc(-c2cccnc2Oc2cc(C(=O)Nc3cc(C(F)(F)F)ccc3N3CCCCC3)ccc2C)n1`, for which it took 0.461 µM to reach half-maximal inhibition in [3] (IC50).

In series [6], `CNc1ncnc(-c2cccnc2Oc2ccc(F)c(C(=O)Nc3cc(C(C)C)ccc3N(C)CCCN(C)C)c2)n1` gave a clearance of 70 mL/min/kg. Moreover, in [3], the half-maximal inhibitory concentration (IC50) was over 8 µM.

As to `Cc1ccc(C(=O)Nc2cccc(C(F)(F)F)c2)cc1Oc1ncccc1-c1ccncn1`, the half-maximal inhibitory concentration (IC50) in series [3] was 0.059 µM.

As for `Cc1ccc(C(=O)Nc2cc(C(F)(F)F)ccc2N2CCOCC2)cc1Oc1ncccc1-c1ccncn1`, the IC50 in series [3] is over 25 µM.

In [3], `Cc1ccc(C(=O)Nc2ccccc2)cc1Nc1ncccc1-c1ccncn1` yielded an IC50 of 0.435 µM.

In the case of `CNc1ncnc(-c2cccnc2Oc2cc(C(=O)Nc3cc(C4CCCCC4)ccc3OC)ccc2C)n1`, the IC50 in series [1] was 0.022 µM; in [5], 0.061 µM; in series [3] it was over 25 µM. This compound also gave a clearance in series [6] of 12.8 mL/min/kg. Besides, the mean residence time MRT in series [44] is 0.47 h.

Take `CNc1ncnc(-c2cccnc2Oc2ccc(F)c(C(=O)Nc3cc(C4CC4)ccc3N(C)CCCN(C)C)c2)n1`: the concentration for half-maximal inhibition (IC50) is 0.013 µM in series [1], 0.039 µM in series [5] and over 25 µM in series [3]. The compound also gave a clearance in series [6] of 45.5 mL/min/kg.

In the case of `COc1ccc(C2CCCCC2)cc1NC(=O)c1ccc(C)c(Oc2ncccc2-c2ccnc3ccccc23)c1`, the IC50 in series [1] and in series [3] was over 25 µM in each case.

Consider `CNc1nccc(-c2cc(C)cnc2Oc2cccc(C(=O)Nc3cc(C(F)(F)F)ccc3N3CCCCC3)c2C)n1`, for which the 50% inhibitory concentration (IC50) in [1] was 0.388 µM; in [3], 2.6 µM.

In the case of `Cc1ccc(C(=O)Nc2cccc(C(F)(F)F)c2)cc1Nc1ncccc1-c1ccncn1`, the half-maximal inhibitory concentration (IC50) in [11] is under 0.025 µM; in [16], under 0.025 µM; in [18], under 0.025 µM; in series [22] it was under 0.025 µM; in series [45], under 0.025 µM; in series [3], 0.004 µM.

As to `CNc1nccc(-c2cccnc2Oc2cc(C(=O)Nc3cc(C(F)(F)F)ccc3N3CCOCC3)ccc2C)n1`, in series [3], half-maximal inhibition (IC50) was put at 0.31 µM.

Consider `O=C(Nc1ccc(Oc2ccccc2)cc1)c1cccnc1NCc1ccncc1`, for which the 50% inhibitory concentration (IC50) in series [1] is at least 25 µM.

As for `COc1ccc(C2CCCCC2)cc1NC(=O)c1ccc(C)c(Oc2ncccc2-c2ncnc3cc(OC)c(OC)cc23)c1`, the concentration for half-maximal inhibition (IC50) in [1] and in series [3] was over 25 µM in each case.

In turn, `CNc1nccc(-c2cccnc2Oc2cc(C(=O)Nc3cc(C4CCCCC4)ccc3OC)ccc2C)n1` had a clearance in [6] of 58.2 mL/min/kg. This compound returned an IC50 in series [3] of 0.07 µM.

A word on the IC50: it is the concentration at which inhibition is half-maximal. Usually solubility stands for the dissolved amount per volume that the medium holds. A word on the clearance: it is the volume of plasma or blood freed of the substance per unit of time. What is called half-life is how long it takes for the measured level to halve. Lower therefore signals fast loss. By bioavailability is commonly meant dose-corrected exposure relative to a reference, in per cent. Low values mean little systemic uptake, high ones much systemic uptake. The Cmax is the highest concentration seen after dosing. Usually AUC(0-inf) stands for total exposure, with the tail of the curve extrapolated. Low values mean less exposure, high ones more exposure. As usually defined, the inhibition is the change of the read-out against control, counted positive when it falls. The low end stands for little suppression, the high end for strong suppression. A word on the Tmax: it is the time at which the peak concentration occurs. What is called pKa is the pH at which an ionisable group is half protonated. Read a high pKa as a weaker acid or stronger base. For orientation: MRT means the average time that molecules of a dose stay in the body.
